From patent US20210092955A1, “METHOD OF CONTROLLING HERBICIDE RESISTANT WEEDS IN CROPS” (SUMITIMO CHEMICAL COMPANY, LIMITED, priority 2018, published 2021)

Columns and labels:
Assay type in all cases: in vivo
[1] = tested on: Amaranthus palmeri having Gly210 deletion in PPO2; test: Herbicidal effect, foliar spray in greenhouse pots (Example 4609, comparison); conditions: rating 0 to 100; 25 g/ha; foliar spray 216 L/ha; 17 days after treatment; known art comparison
Excerpt: (§1) Plastic pots each having a diameter of 8 cm and a height of 7 cm were filled with the soil and seedlings of Amaranthus palmeri having a Gly399Ala mutation in PPO2 (originated from Mississippi, USA) were planted. After cultivation in a greenhouse for 31 days, an aqueous spray liquid prepared by diluting a predetermined amount of a commercial saflufenacil formulation (suspension concentrate containing 29.74% of saflufenacil, manufactured by BASF Corp. under the trade name of Sharpen) with water was sprayed uniformly over the weed using a sprayer in an amount of 216 L/ha. Then, the weeds were cultivated in a greenhouse for 17 days, followed by examining the herbicidal effects. For comparison, Amaranthus palmeri having Gly210 deletion in PPO2 (originated from Illinois, USA) and commercially available wild-type Amaranthus palmeri were tested.

[2] = tested on: wild-type Amaranthus palmeri; test: Herbicidal effect, foliar spray in greenhouse pots (Example 4609); conditions: rating 0 to 100, 25 g/ha, foliar spray 216 L/ha, 17 days after treatment
Excerpt: as §1

[3] = tested on: Amaranthus palmeri having a Gly399Ala mutation in PPO2; test: as above; conditions: rating 0 to 100; 25 g/ha; foliar spray 216 L/ha; 17 days after treatment
Excerpt: as §1

wild-type waterhemp = test: Herbicidal effect, foliar spray in greenhouse pots (Example 4610, comparison); conditions: rating 0 to 100; 100 g/ha; foliar spray 200 L/ha; 4 days after treatment
Excerpt: (§2) Plastic pots each having a diameter of 8 cm and a height of 7 cm were filled with the soil and seedlings of Amaranthus palmeri having Arg128Gly mutation in PPO2 (originated from Arkansas, USA) were planted. After cultivaited in a greenhouse for 42 days, an aqueous spray liquid prepared by diluting a predetermined amount of trifludimoxazin formulation (emulsifiable concentrate obtained by mixing 20 parts of trifludimoxazin with 80 parts liquid cocktail (5:1 mixture of cyclohexanone and Sorpol 2680X (TOHO Chemical Industry Co., Ltd.))) with water, and its mixture with saflufenacil made by additionally diluting a predetermined amount of commercial saflufenacil formulation (suspension concentrate containing 29.74% of saflufenacil, manufactured by BASF Corp. under the trade name of Sharpen) were separately sprayed over the weed using a sprayer in an amount of 200 L/ha uniformly. Then, the weeds were cultivated in a greenhouse for 4 days, followed by examininig the herbicidal effects on the weeds. For comparison, waterhemp having Gly210 deletion in PPO2 (originated from Illinois, USA), commercially available wild-type waterhemp, and commercially available wild-type Amaranthus palmeri were tested.

[4] = tested on: waterhemp having Gly210 deletion in PPO2; test: as above; conditions: rating 0 to 100; 100 g/ha; foliar spray 200 L/ha; 4 days after treatment; known art comparison
Excerpt: as §2

[5] = tested on: wild-type Amaranthus palmeri; test: Herbicidal effect, foliar spray in greenhouse pots (Example 4610); conditions: rating 0 to 100; 100 g/ha; foliar spray 200 L/ha; 4 days after treatment
Excerpt: as §2

[6] = tested on: Amaranthus palmeri having Arg128Gly mutation in PPO2; test: as above; conditions: rating 0 to 100; 100 g/ha; foliar spray 200 L/ha; 4 days after treatment
Excerpt: as §2

[7] = tested on: Amaranthus palmeri having an Arg128Met mutation in PPO2; test: Soil surface treatment on day of sowing weed and soybean (Example 2); conditions: 10, 20, 40, or 80 g/ha on soil surface on day of sowing; examined after 21 days
Excerpt: (§3) Amaranthus palmeri having an Arg128Met mutation in PPO2 and soybean are sown in a plastic pot. On the same day, a compound X is applied to the surface of soil in an amount of 10, 20, 40, or 80 g/ha by spraying 200 L/ha of an aqueous dilution containing the compound X. Then, the weeds and soybean are cultivated in a greenhouse to examine the effects on the weeds and phytotoxic effects on soybean after 21 days.

[8] = tested on: Amaranthus palmeri having an Arg128Met mutation in PPO2; test: Soil surface treatment before sowing soybean (Example 1); conditions: 10, 20, 40, or 80 g/ha on soil surface on day of weed sowing; soybean sown after 7 days; examined after 14 days
Excerpt: as §3, with “is” for “and soybean are”, “[…].” for “X.”, “weeds” for “weeds and soybean”, “greenhouse and soybean seeds are sown after 7 days,” for “greenhouse”, “14” for “21”

[9] = tested on: Amaranthus palmeri having an Arg128Met mutation in PPO2; test: Foliar treatment 21 days after sowing (Example 3); conditions: 10, 20, 40, or 80 g/ha foliar treatment 21 days after sowing; examined 14 days after the treatment
Excerpt: Amaranthus palmeri having an Arg128Met mutation in PPO2 and soybean are sown in a plastic pot. Then, the weeds and soybean are cultivated in a greenhouse. A compound X is applied in an amount of 10, 20, 40, or 80 g/ha by spraying 200 L/ha of an aqueous dilution containing the compound X to perform foliar treatment 21 days after the sowing. Then, the weeds and soybean are cultivated in a greenhouse to examine the effects on the weeds and phytotoxic effects on soybean 14 days after the treatment.

CC(C)N(C)S(=O)(=O)NC(=O)c1cc(-n2c(=O)cc(C(F)(F)F)n(C)c2=O)c(F)cc1Cl [Saflufenacil]
herbicidal effect, Amaranthus palmeri Gly210 deletion [1]: 65 | herbicidal effect, Amaranthus palmeri Wild-type ([2]; Table 1): 100 | herbicidal effect, Amaranthus palmeri Wild-type ([2]; Table 2): 100 | herbicidal effect, Amaranthus palmeri Gly399Ala mutation [3]: 100

C#CCN1C(=O)C(F)(F)Oc2cc(F)c(-n3c(=O)n(C)c(=S)n(C)c3=O)cc21 [Trifludimoxazin]
herbicidal effect, waterhemp Wild-type (wild-type waterhemp): 95 | herbicidal effect, waterhemp Gly210 deletion [4]: 50 | herbicidal effect, Amaranthus palmeri Wild-type [5]: 90 | herbicidal effect, Amaranthus palmeri Arg128Gly mutation [6]: 88

CCOC(=O)COc1ncccc1Oc1cc(-n2c(=O)cc(C(F)(F)F)n(C)c2=O)c(F)cc1Cl [compound X, Ethyl [3-[2-chloro-4-fluoro-5-(1-methyl-6-trifluoromethyl-2,1-dioxo-1,2,3,1-tetrahydropyrimidine-3-yl)phenoxy]-2-pyridyloxy]acetate]
effects on the weeds [7]: valuable effect | effects on the weeds [8]: valuable effect | effects on the weeds [9]: valuable effect
